Earlier results in patent US8740762B2, “Specific inhibition of cPLA2 enhances the efficacy of radiotherapy” (Vanderbilt University, priority 2007, dated 2014).

Key:
pro-survival kinases = details: 20 μM

lysophosphatidylcholine [LPC]
cell death (HUVEC; concentrations higher than 25 μM): promote cell death
proliferation of HUVEC (HUVEC; up to 25 μM): increase proliferation
activation of pro-survival kinases (pro-survival kinases): activated the same pro-survival kinases
